What is called half-life is the time needed for the level to fall by half in the phase considered. The low end stands for rapid decline, the high end for slow decline.

Half-life data for 3 compounds are collected here from patent US20040242566A1, “Dipeptidyl peptidase inhibitors” (Syrrx, Inc., priority 2003, published 2004).

SMILES strings stand for the structures.

The data set can be described thus: in vitro. The following applies: rat, rat liver microsomes, pH 7.4. On the technique in general: Liver microsomes are a subcellular fraction often used to study metabolism.

Procedure: Several compounds were evaluated for stability in rat liver microsomes.
The test compounds (1 p) were incubated at 37° C. in phosphate buffer (50 mM, pH 7.4) containing rat liver microsomes (1 mg/mL protein) and NADPH (Nicotinamide Adenine Dinucleotide Phosphate, reduced form) (4 mM). The incubation mixtures were quenched with trichloroacetic acid (0.3 M) over 0, 5, 15, 30 min time-course. Quenched solutions were centrifuged and supernatants were transferred for LC/MS quantitation. The half life of a test compounds was derived from the compound stability curve over the time course.

The compound `N#Cc1ccccc1Cn1c(N2CCCC(N)C2)nc2ccccc2c1=O` (stereo not drawn) [Example 1, 2-[2-(3-Amino-piperidin-1-yl)-4-oxo4H-quinazolin-3-ylmethyl]-benzonitrile] had a half-life at 1 p of 2.5 min.
Under `COc1cc2nc(N3CCCC(N)C3)n(Cc3ccccc3C#N)c(=O)c2cc1OC` (stereo not drawn) [Example 2, 2-[2-(3-Amino-piperidin-1-yl)-6,7-dimethoxy-4-oxo-4H-quinazolin-3-ylmethyl]-benzonitrile] stands 107 min.
Under `N#Cc1ccccc1Cn1c(N2CCCC(N)C2)nc2ccc(F)cc2c1=O` (stereo not drawn) [Example 6, 2-[2-(3-Amino-piperidin-1-yl)-6-fluoro4-oxo4H-quinazolin-3-ylmethyl]-benzonitrile] stands 31 min.
